# Source: patent US20170056380A1, “Systems, Methods, Techniques, and Compounds in Research and Treatment of Portal Hypertension and other Conditions” (priority 2014, published 2017)
# Assays:
# [1] = biological target: T1, eNOS cytochrome c reductase activity (Rattus norvegicus, UniProt Q62600); experiment: NADPH-dependent cytochrome c reductase assay in sinusoidal endothelial cell lysates; type: cell-based
# T1 construct: endogenous in cells; host or cells: primary liver sinusoidal endothelial cells from male Sprague-Dawley rats (normal or bile-duct-ligated)
# T1 sequence (Q62600 1-1202): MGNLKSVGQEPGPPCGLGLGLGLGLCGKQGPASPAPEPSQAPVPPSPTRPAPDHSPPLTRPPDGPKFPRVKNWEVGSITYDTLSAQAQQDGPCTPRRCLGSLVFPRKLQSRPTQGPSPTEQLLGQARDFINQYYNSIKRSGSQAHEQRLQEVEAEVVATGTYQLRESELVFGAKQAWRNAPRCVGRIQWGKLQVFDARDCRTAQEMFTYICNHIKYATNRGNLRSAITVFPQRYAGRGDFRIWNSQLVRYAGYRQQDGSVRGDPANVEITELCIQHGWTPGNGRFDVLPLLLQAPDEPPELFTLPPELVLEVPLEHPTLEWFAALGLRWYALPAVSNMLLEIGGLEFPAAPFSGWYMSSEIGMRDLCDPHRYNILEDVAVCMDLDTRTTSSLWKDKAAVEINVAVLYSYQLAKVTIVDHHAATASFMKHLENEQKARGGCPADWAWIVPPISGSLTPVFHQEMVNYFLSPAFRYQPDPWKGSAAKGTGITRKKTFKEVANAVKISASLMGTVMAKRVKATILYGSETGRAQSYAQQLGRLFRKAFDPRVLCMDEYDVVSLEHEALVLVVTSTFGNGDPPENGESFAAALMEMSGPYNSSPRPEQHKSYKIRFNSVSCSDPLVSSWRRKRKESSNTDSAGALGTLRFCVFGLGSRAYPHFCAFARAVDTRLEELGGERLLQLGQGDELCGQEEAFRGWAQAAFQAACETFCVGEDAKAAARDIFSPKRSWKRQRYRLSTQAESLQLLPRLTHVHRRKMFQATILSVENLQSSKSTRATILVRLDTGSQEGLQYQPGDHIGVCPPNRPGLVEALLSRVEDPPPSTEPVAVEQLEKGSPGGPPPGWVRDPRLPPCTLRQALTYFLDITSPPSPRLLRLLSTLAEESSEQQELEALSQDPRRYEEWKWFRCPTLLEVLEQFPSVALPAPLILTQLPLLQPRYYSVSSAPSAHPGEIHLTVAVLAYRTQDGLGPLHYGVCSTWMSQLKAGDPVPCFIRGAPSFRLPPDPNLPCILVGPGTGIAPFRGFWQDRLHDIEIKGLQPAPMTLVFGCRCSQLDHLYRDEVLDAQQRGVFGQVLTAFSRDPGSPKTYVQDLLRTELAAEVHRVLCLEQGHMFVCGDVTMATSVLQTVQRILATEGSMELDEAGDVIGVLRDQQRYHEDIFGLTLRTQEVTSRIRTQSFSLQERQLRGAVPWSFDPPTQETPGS
# Description: Cell isolation and culture. Sinusoidal endothelial cells were isolated from male Sprague-Dawley rats (450-500 g) (Harlan, Indianapolis, Ind.). In brief, after in situ perfusion of the liver with 20 mg/100 mg pronase (Roche Molecular Biochemicals, Indianapolis, Ind.), followed by collagenase (Worthington Biochemical, Lakewood, N.J.), dispersed cell suspensions were removed from a layered discontinuous density gradient of 8.2 and 15.6% Accudenz (Accurate Chemical and Scientific, Westbury, N.Y.), further purified by centrifugal elutriation (18 ml/min flow), and were grown in medium containing 20% serum (10% horse/calf). The purity of endothelial cells was documented by their uptake of fluorescently labeled di-l-acetoacetylated low-density lipoprotein as described (21). Only primary sinusoidal endothelial isolates of >95% purity were used for study. Experiments were performed with cells frorrr a minimum three different isolations (for all experiments).
# NOS activity assay. NOS activity from sinusoidal endothelial cell lysates was assessed by measuring the conversion of L-[3H]arginine to L-[3H]citrulline as described (6) per the manufacturer's instructions (Cayman Chemical). […] Radiolabeled counts per minute of generated L-citrulline were measured and used to determine L-NAME-inhibitable NOS activity (thus, each experiment included total counts and background counts). […] The reductase activities of sinusoidal endothelial cells with or without cicletanine exposure were determined using the NADPH-dependent cytochrome c assay. […] The reduction of cytochrome c was monitored at 550 nm at 25° C. […] Turnover number was calculated using the absorbance change during this 30-s interval and an extinction coefficient of 0.021/μM.
# protein kinase G (PKG) = experiment: Phospho-VASP immunoblotting for PKG activity in stellate cells alone or cocultured with sinusoidal endothelial cells; type: cell-based, rat
# Description: For coculture experiments, freshly isolated stellate cells and freshly isolated sinusoidal endothelial cells were isolated separately and mixed together on collagen-coated plates and cultured for 5 days. Sinusoidal endothelial cells were plated at a density of 200,000 cells/cm2, and stellate cells were at a density of 65,000 cells/cm2.
# Immunoblotting, Immunoblotting was performed by using specified primary antibodies, including anti-eNOS antibody (1:1,000; BD Transduction Laboratories, San Jose, Calif.), anti-phospho-eNOS-Ser^1177 (1:1,000; BD Transduction Laboratories or Cell Signaling Technology), anti-phospho-Akt, anti-Akt (Cell Signaling Technology, Beverly, Mass.), and horseradish peroxidase-conjugated secondary antibody. Specific signals were visualized using enhanced chemiluminescence as per the manufacturer's instructions and were scanned and quantitated with standard software.
compound,measurement,setting,value
"Cc1ncc2c(c1O)COC2c1ccc(Cl)cc1 (centres unmarked) [cicletanine, 3-(4-chlorophenyl)-1,3-dihydro-7-hydroxy-6-methylfuro-(3,4-c) pyridine]",rate of cytochrome c reduction compared with no cicletanine treatment,[1]; CaM stimulation,twofold more
same,rate of cytochrome c reduction compared with no cicletanine treatment,[1]; basal level,twofold more
same,cytochrome c reductase activity,"[1]; cicletanine 100 nM, 2 h",significant increase
same,VASP phosphorylation,protein kinase G (PKG); stellate cells alone,did not alter
same,VASP phosphorylation,protein kinase G (PKG); stellate cells cocultured with sinusoidal endothelial cells,stimulated
